Test systems include RXF 393 renal; TK-10 renal; HL-60(TB) leukemia; DU-145 prostate; A498 renal; OVCAR-8 ovarian; HCT-116 colon; OVCAR-3 ovarian; A549 NSCLC; IGROV1 ovarian; UO-31 renal; U251 CNS; CAKI-1 renal; OVCAR-5 ovarian; NCI-H460 lung; SF-295 CNS; HT29 colon; HS 578T breast; COLO 205 colon.
What all share (experiment): DTP human tumour cell line panel, 48 h

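Each compound was tested at five concentrations against cells in 96-well plates for 48 hours. GI50 is the concentration that inhibits growth by half. At the TGI there is no net growth.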

As for `O=C(O)C1CC[N-]CC1.O=C(O)C1CC[N-]CC1.[Cl][Pt+2]([Cl])([Cl])[Cl]`, the GI50 in the test with RXF 393 renal is 34.2 µM.
For the molecule `OC(c1cc(-c2ccc(C(F)(F)F)cc2)nc(-c2ccc(C(F)(F)F)cc2)c1)C1CCCCN1` (configuration not stated), the GI50 with TK-10 renal was 1.82 µM; in the test on HL-60(TB) leukemia it was 2.05 µM; in the test on DU-145 prostate it was 1.78 µM; in the test on A498 renal it was 1.56 µM; in the test with OVCAR-8 ovarian, 1.47 µM; in the test on HCT-116 colon, 1.66 µM. Moreover, the GI50 is 1.78 µM with OVCAR-3 ovarian; 1.72 µM with A549 NSCLC; 1.83 µM in the test with IGROV1 ovarian; 1.56 µM in the test on UO-31 renal; 1.71 µM in the test with U251 CNS; 1.89 µM with CAKI-1 renal. Also, the GI50 with OVCAR-5 ovarian is 1.58 µM; in the test with NCI-H460 lung, 1.62 µM; in the test with SF-295 CNS, 1.75 µM; in the test with HT29 colon, 1.62 µM; in the test with HS 578T breast, 1.47 µM; with COLO 205 colon it was 0.893 µM. For the same molecule, the TGI in the test with TK-10 renal is 3.28 µM; with HL-60(TB) leukemia it was 3.88 µM; in the test on DU-145 prostate it was 3.16 µM; in the test with A498 renal, 2.96 µM; in the test with OVCAR-8 ovarian, 3.1 µM; in the test on HCT-116 colon, 3.18 µM. For the same molecule, the TGI was 3.25 µM in the test on OVCAR-3 ovarian; 3.28 µM with A549 NSCLC; 3.67 µM with IGROV1 ovarian; 3.3 µM in the test on UO-31 renal; 3.32 µM with U251 CNS; 3.79 µM in the test on CAKI-1 renal. The TGI stood at 3.06 µM in the test with OVCAR-5 ovarian; 3.08 µM with NCI-H460 lung; 3.33 µM with SF-295 CNS; 3.09 µM with HT29 colon; 3.2 µM in the test with HS 578T breast; 2.1 µM in the test on COLO 205 colon.

As usually defined, the GI50 is the concentration that inhibits growth by half. A word on the TGI: it is the concentration at which net growth stops.

The values are drawn from PubChem BioAssay (NCI).
